Assay results: US10815222B2, “Compounds for use in the treatment of kinetoplastid infection” (C.N.C.C.S. S.c.a.r.l. COLLEZIONE NAZIONALE DEI COMPOSTI …, priority 2016, dated 2020)

system: Bloodstream form of Trypanosoma brucei, strain Lister 427; test: Trypanosoma brucei growth inhibition assay (CellTiter-Glo, 24 h); format: cell-based; conditions: T. Brucei Growth Inibition Assay, class symbols; read-out: T. Brucei GI EC50
Procedure, shortened: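 Bloodstream-form T. brucei Lister 427, 1500 parasites per well in supplemented IMDM with 10% FBS, were exposed to compound (DMSO ≤0.25% final) for 24 h at 37 °C. Viability was measured by CellTiter-Glo luminescence.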

With `COc1ccc2nc(C(F)(F)F)n(CC(=O)N3CC[C@@H](N(C)CC4CCOC4)C[C@H]3c3ncc(-c4cc5ccccc5nc4OC)[nH]3)c2c1` (stereo partly shown) the EC50 was less than 100 nM.

same assay, conditions: Trypanosoma brucei; T. Brucei Growth Inibition Assay, class symbols; read-out: T. Brucei GI EC50

Compared with `COc1ccc2nc(C(F)(F)F)n(CC(=O)N3CC[C@H](N(C)Cc4nccs4)C[C@H]3c3ncc(-c4cc5ccccc5nc4OC)[nH]3)c2c1` [2-(6-methoxy-2-(trifluoromethyl)-1H-benzo[d]imidazol-1-yl)-1-((2S,4S)-2-(5-(2-methoxyquinolin-3-yl)-1H-imidazol-2-yl)-4-(methyl(thiazol-2-ylmethyl)amino)piperidin-1-yl)ethan-1-one], `COc1ccc2nc(C(F)(F)F)n(CC(=O)N3CC[C@H](N)C[C@H]3c3ncc(-c4cc5ccccc5nc4OC)[nH]3)c2c1` [1-((2S,4S)-4-amino-2-(5-(2-methoxyquinolin-3-yl)-1H-imidazol-2-yl)piperidin-1-yl)-2-(6-methoxy-2-(trifluoromethyl)-1H-benzo[d]imidazol-1-yl)ethan-1-one] is higher in EC50: less than 100 nM for the first, 1010 to 5000 nM for the second. The first is the more potent here.

`COc1ccc2nc(C(F)(F)F)n(CC(=O)N3CCN(C4CCC4)CCC3c3ncc(-c4cc5ccccc5nc4OC)[nH]3)c2c1` (stereo not shown) [1-(4-cyclobutyl-7-(5-(2-methoxyquinolin-3-yl)-1H-imidazol-2-yl)-1,4-diazepan-1-yl)-2-(6-methoxy-2-(trifluoromethyl)-1H-benzo[d]imidazol-1-yl)ethan-1-one] and `COc1ccc2nc(C(F)(F)F)n(CC(=O)N3CCCCC3c3ncc(-c4cc5ccccc5nc4OC)[nH]3)c2c1` (stereo not shown) [2-(6-methoxy-2-(trifluoromethyl)-1H-benzo[d]imidazol-1-yl)-1-(2-(5-(2-methoxyquinolin-3-yl)-1H-imidazol-2-yl)piperidin-1-yl)ethan-1-one] cannot be ordered by EC50: less than 100 nM for the first, less than 100 nM for the second.

`COc1ccc2nc(C(F)(F)F)n(CC(=O)N3CCN(CCc4ccccn4)C[C@H]3c3ncc(-c4cc5ccccc5nc4OC)[nH]3)c2c1` [(S)-2-(6-methoxy-2-(trifluoromethyl)-1H-benzo[d]imidazol-1-yl)-1-(2-(5-(2-methoxyquinolin-3-yl)-1H-imidazol-2-yl)-4-(2-(pyridin-2-yl)ethyl)piperazin-1-yl)ethan-1-one] and `COc1ccc2nc(C(F)(F)F)n(CC(=O)N3CCN(Cc4cocn4)C[C@H]3c3ncc(-c4cc5ccccc5nc4OC)[nH]3)c2c1` [(S)-2-(6-methoxy-2-(trifluoromethyl)-1H-benzo[d]imidazol-1-yl)-1-(2-(5-(2-methoxyquinolin-3-yl)-1H-imidazol-2-yl)-4-(oxazol-4-ylmethyl)piperazin-1-yl)ethan-1-one] cannot be ordered by EC50: less than 100 nM for the first, less than 100 nM for the second.

First: COc1ccc2cc(C)n(CC(=O)N3CCS(=O)(=O)CC3c3ncc(-c4cc5ccccc5nc4OC)[nH]3)c2c1 (stereo not shown)
Second: COc1ccc2nc(C(F)(F)F)n(CC(=O)N3CCS(=O)(=O)CC3c3ncc(-c4cc5ccccc5nc4OC)[nH]3)c2c1 (stereo not shown) [2-(6-methoxy-2-(trifluoromethyl)-1H-benzo[d]imidazol-1-yl)-1-(3-(5-(2-methoxyquinolin-3-yl)-1H-imidazol-2-yl)-1,1-dioxidothiomorpholino)ethan-1-one]
The EC50 of the first is higher: 510 to 1000 nM for the first, 100 to 500 nM for the second. The second is the more potent here.

Compared with `COc1ccc2nc(C)n(CC(=O)N3CCN(Cc4cnccn4)CCC3c3ncc(-c4cc5ccccc5nc4OC)[nH]3)c2c1` (stereo not shown), `COc1ccc2nc(C(F)(F)F)n(CC(=O)N3CCN(Cc4cocn4)CCC3c3ncc(-c4cc5ccccc5nc4OC)[nH]3)c2c1` (stereo not shown) [2-(6-methoxy-2-(trifluoromethyl)-1H-benzo[d]imidazol-1-yl)-1-(7-(5-(2-methoxyquinolin-3-yl)-1H-imidazol-2-yl)-4-(oxazol-4-ylmethyl)-1,4-diazepan-1-yl)ethan-1-one] is lower in EC50: 100 to 500 nM for the first, less than 100 nM for the second.

`COc1ccc2[nH]cc(CC(=O)N3CCN(CC4CCOC4)CC3c3ncc(-c4cc5ccccc5nc4OC)[nH]3)c2c1` (stereo not shown) and `COc1nc2ccccc2cc1-c1cnc(C2CN(CC3CCOC3)CCN2C(=O)Cc2sc3ccccc3c2C)[nH]1` (stereo not shown) fall in the same range of EC50: 100 to 500 nM for the first, 100 to 500 nM for the second.

First: COc1nc2ccccc2cc1-c1cnc(C2CN(CC3CCOC3)CCN2C(=O)Cc2ccc(-c3nccnc3C)cc2)[nH]1 (stereo not shown)
Second: COc1nc2ccccc2cc1-c1cnc([C@@H]2CN(CC3CCOC3)CCN2C(=O)Cn2c(C(N)=O)nc3ccccc32)[nH]1 (stereo partly shown)
The EC50 of the first is higher: 1010 to 5000 nM for the first, 510 to 1000 nM for the second. The second is the more potent here.

Compared with `Cc1[nH]c2ccccc2c1CC(=O)N1CCN(CC2CC2)CC1c1ncc(-c2ccc3ccccc3c2)[nH]1` (stereo not shown), `O=C(Cc1c[nH]c2ccc(O)cc12)N1CCN(CC2CC2)CC1c1ncc(-c2ccc3ccccc3c2)[nH]1` (stereo not shown) is higher in EC50: 100 to 500 nM for the first, 1010 to 5000 nM for the second.

`CCCCCCN1CCN(C(=O)Cc2cn(C)c3ccccc23)C(c2ncc(-c3ccc4ccccc4c3)[nH]2)C1` (stereo not shown) and `CN1CCN(C(=O)Cc2ccccc2)[C@H](c2ncc(-c3ccc4ccccc4c3)[nH]2)C1` fall in the same range of EC50: 1010 to 5000 nM for the first, 1010 to 5000 nM for the second.

`CO[C@](C(=O)N1CCN(C)C[C@@H]1c1ncc(-c2ccc3ccccc3c2)[nH]1)(c1ccccc1)C(F)(F)F` and `CO[C@@](C(=O)N1CCN(C)C[C@@H]1c1ncc(-c2ccc3ccccc3c2)[nH]1)(c1ccccc1)C(F)(F)F` fall in the same range of EC50: 1010 to 5000 nM for the first, 1010 to 5000 nM for the second.

`COc1ccc2nc(C)n(CC(=O)N3CCN(CC4CCOC4)C[C@H]3c3ncc(-c4cc5ccccc5[nH]4)[nH]3)c2c1` (stereo partly shown) and `COc1ccc2nc(C)n(CC(=O)N3CCN(C[C@@H]4CCOC4)CC3c3ncc(-c4ccc(-c5ccccc5)nc4OC)[nH]3)c2c1` (stereo partly shown) fall in the same range of EC50: 1010 to 5000 nM for the first, 1010 to 5000 nM for the second.

First: COc1ccccc1C(=O)N1CCN(C)CC1c1ncc(-c2ccc3ccccc3c2)[nH]1 (stereo not shown)
Second: COc1ccc2[nH]c(C)c(CC(=O)N3CC(=O)N(C)CC3c3ncc(-c4ccc5ccccc5c4)[nH]3)c2c1 (stereo not shown) [4-(2-(5-methoxy-2-methyl-1H-indol-3-yl)acetyl)-1-methyl-5-(5-(naphthalen-2-yl)-1H-imidazol-2-yl)piperazin-2-one]
The EC50 of the first is higher: 1010 to 5000 nM for the first, 510 to 1000 nM for the second.

`COc1nc2ccccc2cc1-c1cnc([C@@H]2CN(Cc3cocn3)CCN2C(=O)Cn2c(C(F)(F)F)nc3ccccc32)[nH]1` [(S)-1-(2-(5-(2-methoxyquinolin-3-yl)-1H-imidazol-2-yl)-4-(oxazol-4-ylmethyl)piperazin-1-yl)-2-(2-(trifluoromethyl)-1H-benzo[d]imidazol-1-yl)ethan-1-one] and `COc1nc2ccccc2cc1-c1cnc([C@@H]2CN(Cc3noc(C)n3)CCN2C(=O)Cn2c(C(F)(F)F)nc3ccccc32)[nH]1` [(S)-1-(2-(5-(2-methoxyquinolin-3-yl)-1H-imidazol-2-yl)-4-((5-methyl-1,2,4-oxadiazol-3-yl)methyl)piperazin-1-yl)-2-(2-(trifluoromethyl)-1H-benzo[d]imidazol-1-yl)ethan-1-one] cannot be ordered by EC50: less than 100 nM for the first, less than 100 nM for the second.

`COc1ccc2nc(C(F)(F)F)n(CC(=O)N3CC[C@H](OC)C[C@H]3c3ncc(-c4cc5ccccc5nc4OC)[nH]3)c2c1` [1-((2S,4S)-4-methoxy-2-(5-(2-methoxyquinolin-3-yl)-1H-imidazol-2-yl)piperidin-1-yl)-2-(6-methoxy-2-(trifluoromethyl)-1H-benzo[d]imidazol-1-yl)ethan-1-one] and `COc1ccc2nc(C(F)(F)F)n(CC(=O)N3CC[C@H](NC4CC(OC)C4)C[C@H]3c3ncc(-c4cc5ccccc5nc4OC)[nH]3)c2c1` (stereo partly drawn) [2-(6-methoxy-2-(trifluoromethyl)-1H-benzo[d]imidazol-1-yl)-1-((2S,4S)-4-((3-methoxycyclobutyl)amino)-2-(5-(2-methoxyquinolin-3-yl)-1H-imidazol-2-yl)piperidin-1-yl)ethan-1-one] cannot be ordered by EC50: less than 100 nM for the first, less than 100 nM for the second.

`COc1ccc2nc(C(F)(F)F)n(CC(=O)N3CC[C@H](NCC4CCOC4)C[C@H]3c3ncc(-c4cc5ccccc5nc4OC)[nH]3)c2c1` (stereo partly drawn) [2-(6-methoxy-2-(trifluoromethyl)-1H-benzo[d]imidazol-1-yl)-1-((2S,4S)-2-(5-(2-methoxyquinolin-3-yl)-1H-imidazol-2-yl)-4-(((tetrahydrofuran-3-yl)methyl)amino)piperidin-1-yl)ethan-1-one] and `COc1ccc2nc(C(F)(F)F)n(CC(=O)N3CC[C@H](N[C@@H]4CCOC4)C[C@H]3c3ncc(-c4cc5ccccc5nc4OC)[nH]3)c2c1` [2-(6-methoxy-2-(trifluoromethyl)-1H-benzo[d]imidazol-1-yl)-1-((2S,4S)-2-(5-(2-methoxyquinolin-3-yl)-1H-imidazol-2-yl)-4-(((R)-tetrahydrofuran-3-yl)amino)piperidin-1-yl)ethan-1-one] cannot be ordered by EC50: less than 100 nM for the first, less than 100 nM for the second.

Compared with `COc1ccc2nc(C(F)(F)F)n(CC(=O)N3CCN(C(C)C)CCC3c3ncc(-c4cc5ccccc5nc4OC)[nH]3)c2c1` (stereo not shown), `COc1ccc2nc(C(F)(F)F)n(CC(=O)N3CCN(CC4CCN(C(C)=O)C4)C[C@H]3c3ncc(-c4cc5ccccc5nc4OC)[nH]3)c2c1` (stereo partly drawn) [1-((2S)-4-((1-acetylpyrrolidin-3-yl)methyl)-2-(5-(2-methoxyquinolin-3-yl)-1H-imidazol-2-yl)piperazin-1-yl)-2-(6-methoxy-2-(trifluoromethyl)-1H-benzo[d]imidazol-1-yl)ethan-1-one] is lower in EC50: 100 to 500 nM for the first, less than 100 nM for the second.

`COc1nc2ccccc2cc1-c1cnc(C2CN(CC3CC3)CCN2C(=O)Cc2c(C)[nH]c3ccc(F)cc23)[nH]1` (stereo not shown) and `COc1nc2ccccc2cc1-c1cnc(C2CS(=O)(=O)CCN2C(=O)Cc2c(C)[nH]c3ccc(F)cc23)[nH]1` (stereo not shown) [2-(5-fluoro-2-methyl-1H-indol-3-yl)-1-(3-(5-(2-methoxyquinolin-3-yl)-1H-imidazol-2-yl)-1,1-dioxidothiomorpholino)ethan-1-one] fall in the same range of EC50: 100 to 500 nM for the first, 100 to 500 nM for the second.

First: COc1nc2ccccc2cc1-c1cnc([C@@H]2CN(Cc3ccccc3F)CCN2C(=O)Cn2c(C(F)(F)F)nc3ccccc32)[nH]1
Second: COc1nc2ccccc2cc1-c1cnc([C@@H]2CN(C[C@H]3CCOC3)CCN2C(=O)Cn2c(C(F)(F)F)nc3ccccc32)[nH]1 (single isomer, unassigned)
The EC50 of the first is higher: 100 to 500 nM for the first, less than 100 nM for the second. The second is the more potent here.

First: COc1nc2ccccc2cc1-c1cnc(C2CN(CC3CC3)CCN2C(=O)CC2=C(C)NC3C=CC=CC23)[nH]1 (stereo not shown)
Second: CCCCCCN1CCN(C(=O)CC2=C(C)NC3C=CC=CC23)C(c2ncc(-c3cc4ccccc4nc3O)[nH]2)C1 (stereo not shown)
The EC50 of the first is lower: 100 to 500 nM for the first, 1010 to 5000 nM for the second. The first is the more potent here.

For `O=C(Cc1n[nH]c2ccccc12)N1CCN(CCc2ccccc2)CC1c1ncc(-c2ccc3ccccc3c2)[nH]1` (stereo not shown), the EC50 was 1010 to 5000 nM.
